These compounds were tested on SKBR3 cells express WT PI3Ka (assay: In vitro cell proliferation, SKBR3 cells (CellTiter-Glo)). Conditions: Homo sapiens, SK-BR-3, 72 h, inhibition of proliferation.
Type: cell-based
Summary of the method: (§1)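 T47D (PI3Kα H1047R; RPMI, 10% FBS, insulin 0.2 units/mL) or SKBR3 (WT PI3Kα; McCoys 5a, 10% FBS) cells seeded at 1,500 cells/well on 10-point compound dilutions, grown 72 h at 37 °C. CellTiter-Glo luminescence; inhibition normalised to 0.1% DMSO and 10 uM alpelisib, EC50 from four-parameter fit.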

Structure (SMILES)	EC50
Cc1cc([C@@H](C)Nc2ccccc2C(=O)O)c2cc(-c3cnc(C4CC4)nc3)n(C)c(=O)c2c1 [Example 307]	> 15000 nM
C[C@@H](Nc1ccccc1C(=O)O)c1cc(F)cc2c(=O)n(C)c(N3CCN(CC(F)(F)F)CC3)cc12 [Example 316]	> 15000 nM
Cc1cc([C@@H](C)Nc2ccccc2C(=O)O)c2cc(-c3cnc(C(C)(F)F)nc3)n(C)c(=O)c2c1 [Example 317]	> 15000 nM
Cc1cc([C@@H](C)Nc2cccc(F)c2C(=O)O)c2cc(-c3cnc(C(C)C)nc3)n(C)c(=O)c2c1 [Example 319]	> 15000 nM
Cc1cc([C@@H](C)Nc2cccc(F)c2C(=O)O)c2cc(C3CC3)n(C)c(=O)c2c1 [Example 320]	> 15000 nM
Cc1ncc(F)cc1-c1ncc(-c2cc3c([C@@H](C)Nc4ccccc4C(=O)O)cc(F)cc3c(=O)n2C)cc1F [Example 323]	2000 to 15000 nM
Cc1cc([C@@H](C)Nc2cccc(F)c2C(=O)O)c2cc(-c3ccc(C(C)(C)F)nc3)n(C)c(=O)c2c1 [Example 326]	> 15000 nM
Cc1cc([C@@H](C)Nc2cccc(F)c2C(=O)O)c2cc(N3CCN(c4cc(C)ncn4)CC3)n(C)c(=O)c2c1 [Example 328]	2000 to 15000 nM
Cc1cc([C@@H](C)Nc2ccc(Cl)nc2C(=O)O)c2cc(-c3cnc(C(C)C)nc3)n(C)c(=O)c2c1 [Example 329]	2000 to 15000 nM
Cc1cc([C@@H](C)Nc2ccccc2C(=O)O)c2cc(-c3ccc4c(c3)OC(F)(F)O4)n(C)c(=O)c2c1 [Example 330]	> 15000 nM
Cc1cc([C@@H](C)Nc2ccccc2C(=O)O)c2cc(-c3ccc(C4(C#N)CC4)nc3)n(C)c(=O)c2c1 [Example 331]	> 15000 nM

Same assay, conditions: inhibition of proliferation, 72 hours

Structure (SMILES)	EC50
Cc1cc([C@@H](C)Nc2ccccc2C(=O)O)c2cc(-c3cnc(CF)c(F)c3)n(C)c(=O)c2c1 [Example 289]	> 15000 nM
Cc1cc([C@@H](C)Nc2ccccc2C(=O)O)c2cc(C34CC(c5ccc(F)cc5)(C3)C4)n(C)c(=O)c2c1 [Example 321]	> 15000 nM
C[C@@H](Nc1ccccc1C(=O)O)c1cc(F)cc2c(=O)n(C)c(-c3cnc(-c4ccc(F)cc4)nc3)cc12 [Example 324]	2000 to 15000 nM
Cc1cc([C@@H](C)Nc2cccc(F)c2C(=O)O)c2cc(N3CCN(c4cncnc4C)CC3)n(C)c(=O)c2c1 [Example 325]	2000 to 15000 nM
Cc1cc([C@@H](C)Nc2ccc(Cl)c(F)c2C(=O)O)c2cc(N3CCN(CC(F)(F)F)CC3)n(C)c(=O)c2c1 [Example 327]	> 15000 nM

The compounds below were run on T47D cells expressing mutant PI3Ka (H1047R) (assay: In vitro cell proliferation, T47D cells (CellTiter-Glo)). Conditions: Homo sapiens, T47D, 72 h, inhibition of proliferation, read-out: Avg T-47D EC50.
Type: cell-based
Summary of the method: as §1

Structure (SMILES)	EC50
Cc1cc([C@@H](C)Nc2ccccc2C(=O)O)c2cc(-c3cnc(C4CC4)nc3)n(C)c(=O)c2c1 [Example 307]	1 to 500 nM
C[C@@H](Nc1ccccc1C(=O)O)c1cc(F)cc2c(=O)n(C)c(N3CCN(CC(F)(F)F)CC3)cc12 [Example 316]	1 to 500 nM
Cc1cc([C@@H](C)Nc2ccccc2C(=O)O)c2cc(-c3cnc(C(C)(F)F)nc3)n(C)c(=O)c2c1 [Example 317]	1 to 500 nM
Cc1cc([C@@H](C)Nc2cccc(F)c2C(=O)O)c2cc(-c3cnc(C(C)C)nc3)n(C)c(=O)c2c1 [Example 319]	1 to 500 nM
Cc1cc([C@@H](C)Nc2cccc(F)c2C(=O)O)c2cc(C3CC3)n(C)c(=O)c2c1 [Example 320]	1 to 500 nM
Cc1ncc(F)cc1-c1ncc(-c2cc3c([C@@H](C)Nc4ccccc4C(=O)O)cc(F)cc3c(=O)n2C)cc1F [Example 323]	1 to 500 nM
Cc1cc([C@@H](C)Nc2cccc(F)c2C(=O)O)c2cc(-c3ccc(C(C)(C)F)nc3)n(C)c(=O)c2c1 [Example 326]	1 to 500 nM
Cc1cc([C@@H](C)Nc2cccc(F)c2C(=O)O)c2cc(N3CCN(c4cc(C)ncn4)CC3)n(C)c(=O)c2c1 [Example 328]	500 to 2000 nM
Cc1cc([C@@H](C)Nc2ccc(Cl)nc2C(=O)O)c2cc(-c3cnc(C(C)C)nc3)n(C)c(=O)c2c1 [Example 329]	1 to 500 nM
Cc1cc([C@@H](C)Nc2ccccc2C(=O)O)c2cc(-c3ccc4c(c3)OC(F)(F)O4)n(C)c(=O)c2c1 [Example 330]	500 to 2000 nM
Cc1cc([C@@H](C)Nc2ccccc2C(=O)O)c2cc(-c3ccc(C4(C#N)CC4)nc3)n(C)c(=O)c2c1 [Example 331]	1 to 500 nM

Same assay, conditions: inhibition of proliferation, 72 hours, read-out: Avg T-47D EC50

Structure (SMILES)	EC50
Cc1cc([C@@H](C)Nc2ccccc2C(=O)O)c2cc(-c3cnc(CF)c(F)c3)n(C)c(=O)c2c1 [Example 289]	1 to 500 nM
Cc1cc([C@@H](C)Nc2ccccc2C(=O)O)c2cc(C34CC(c5ccc(F)cc5)(C3)C4)n(C)c(=O)c2c1 [Example 321]	1 to 500 nM
C[C@@H](Nc1ccccc1C(=O)O)c1cc(F)cc2c(=O)n(C)c(-c3cnc(-c4ccc(F)cc4)nc3)cc12 [Example 324]	1 to 500 nM
Cc1cc([C@@H](C)Nc2cccc(F)c2C(=O)O)c2cc(N3CCN(c4cncnc4C)CC3)n(C)c(=O)c2c1 [Example 325]	1 to 500 nM
Cc1cc([C@@H](C)Nc2ccc(Cl)c(F)c2C(=O)O)c2cc(N3CCN(CC(F)(F)F)CC3)n(C)c(=O)c2c1 [Example 327]	500 to 2000 nM

Each compound was assayed on phosphorylation of AKT (pAKT) in T47D cells expressing mutant PI3Ka (H1047R) (assay: In vitro cell pAKT (Ser473) HTRF, T47D cells). Conditions: Homo sapiens, T47D, 6 h, cellular pAKT, T47D cells, mutant PI3Ka (H1047R), 6 hours; read-out: Avg T-47D IC50.
Type: cell-based
Summary of the method: (§2)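 pAKT (Ser473) was quantified by HTRF in lysates from cells exposed 6 h at 37 °C to 10-point compound series, with T47D in insulin-supplemented RPMI/10% FBS and SKBR3 in McCoy's 5a/10% FBS. Controls: 0.1% DMSO (high) and 10 uM alpelisib (low). IC50 from sigmoidal curve fitting.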

Structure (SMILES)	IC50
Cc1cc([C@@H](C)Nc2ccccc2C(=O)O)c2cc(-c3cnc(C4CC4)nc3)n(C)c(=O)c2c1 [Example 307]	1 to 500 nM
C[C@@H](Nc1ccccc1C(=O)O)c1cc(F)cc2c(=O)n(C)c(N3CCN(CC(F)(F)F)CC3)cc12 [Example 316]	1 to 500 nM
Cc1cc([C@@H](C)Nc2ccccc2C(=O)O)c2cc(-c3cnc(C(C)(F)F)nc3)n(C)c(=O)c2c1 [Example 317]	1 to 500 nM
Cc1cc([C@@H](C)Nc2cccc(F)c2C(=O)O)c2cc(-c3cnc(C(C)C)nc3)n(C)c(=O)c2c1 [Example 319]	1 to 500 nM
Cc1cc([C@@H](C)Nc2cccc(F)c2C(=O)O)c2cc(C3CC3)n(C)c(=O)c2c1 [Example 320]	1 to 500 nM
Cc1ncc(F)cc1-c1ncc(-c2cc3c([C@@H](C)Nc4ccccc4C(=O)O)cc(F)cc3c(=O)n2C)cc1F [Example 323]	1 to 500 nM
Cc1cc([C@@H](C)Nc2cccc(F)c2C(=O)O)c2cc(-c3ccc(C(C)(C)F)nc3)n(C)c(=O)c2c1 [Example 326]	1 to 500 nM
Cc1cc([C@@H](C)Nc2cccc(F)c2C(=O)O)c2cc(N3CCN(c4cc(C)ncn4)CC3)n(C)c(=O)c2c1 [Example 328]	500 to 2000 nM
Cc1cc([C@@H](C)Nc2ccc(Cl)nc2C(=O)O)c2cc(-c3cnc(C(C)C)nc3)n(C)c(=O)c2c1 [Example 329]	1 to 500 nM
Cc1cc([C@@H](C)Nc2ccccc2C(=O)O)c2cc(-c3ccc4c(c3)OC(F)(F)O4)n(C)c(=O)c2c1 [Example 330]	1 to 500 nM
Cc1cc([C@@H](C)Nc2ccccc2C(=O)O)c2cc(-c3ccc(C4(C#N)CC4)nc3)n(C)c(=O)c2c1 [Example 331]	1 to 500 nM

Same assay, conditions: cellular pAKT, T47D cells, mutant PI3Ka (H1047R), 6 hours; read-out: Avg T-47D IC50

Structure (SMILES)	IC50
Cc1cc([C@@H](C)Nc2ccccc2C(=O)O)c2cc(-c3cnc(CF)c(F)c3)n(C)c(=O)c2c1 [Example 289]	1 to 500 nM
Cc1cc([C@@H](C)Nc2ccccc2C(=O)O)c2cc(C34CC(c5ccc(F)cc5)(C3)C4)n(C)c(=O)c2c1 [Example 321]	1 to 500 nM
C[C@@H](Nc1ccccc1C(=O)O)c1cc(F)cc2c(=O)n(C)c(-c3cnc(-c4ccc(F)cc4)nc3)cc12 [Example 324]	1 to 500 nM
Cc1cc([C@@H](C)Nc2cccc(F)c2C(=O)O)c2cc(N3CCN(c4cncnc4C)CC3)n(C)c(=O)c2c1 [Example 325]	500 to 2000 nM
Cc1cc([C@@H](C)Nc2ccc(Cl)c(F)c2C(=O)O)c2cc(N3CCN(CC(F)(F)F)CC3)n(C)c(=O)c2c1 [Example 327]	500 to 2000 nM

Each compound was assayed on phosphorylation of AKT (pAKT) in SKBR3 cells express WT PI3Ka (assay: In vitro cell pAKT (Ser473) HTRF, SKBR3 cells). Conditions: Homo sapiens, SK-BR-3, 6 h, cellular pAKT.
Type: cell-based
Summary of the method: as §2

Structure (SMILES)	IC50
Cc1cc([C@@H](C)Nc2ccccc2C(=O)O)c2cc(-c3cnc(C4CC4)nc3)n(C)c(=O)c2c1 [Example 307]	> 15000 nM
C[C@@H](Nc1ccccc1C(=O)O)c1cc(F)cc2c(=O)n(C)c(N3CCN(CC(F)(F)F)CC3)cc12 [Example 316]	> 15000 nM
Cc1cc([C@@H](C)Nc2ccccc2C(=O)O)c2cc(-c3cnc(C(C)(F)F)nc3)n(C)c(=O)c2c1 [Example 317]	> 15000 nM
Cc1cc([C@@H](C)Nc2cccc(F)c2C(=O)O)c2cc(-c3cnc(C(C)C)nc3)n(C)c(=O)c2c1 [Example 319]	> 15000 nM
Cc1cc([C@@H](C)Nc2cccc(F)c2C(=O)O)c2cc(C3CC3)n(C)c(=O)c2c1 [Example 320]	> 15000 nM
Cc1ncc(F)cc1-c1ncc(-c2cc3c([C@@H](C)Nc4ccccc4C(=O)O)cc(F)cc3c(=O)n2C)cc1F [Example 323]	2000 to 15000 nM
Cc1cc([C@@H](C)Nc2cccc(F)c2C(=O)O)c2cc(-c3ccc(C(C)(C)F)nc3)n(C)c(=O)c2c1 [Example 326]	> 15000 nM
Cc1cc([C@@H](C)Nc2cccc(F)c2C(=O)O)c2cc(N3CCN(c4cc(C)ncn4)CC3)n(C)c(=O)c2c1 [Example 328]	> 15000 nM
Cc1cc([C@@H](C)Nc2ccc(Cl)nc2C(=O)O)c2cc(-c3cnc(C(C)C)nc3)n(C)c(=O)c2c1 [Example 329]	2000 to 15000 nM
Cc1cc([C@@H](C)Nc2ccccc2C(=O)O)c2cc(-c3ccc4c(c3)OC(F)(F)O4)n(C)c(=O)c2c1 [Example 330]	> 15000 nM
Cc1cc([C@@H](C)Nc2ccccc2C(=O)O)c2cc(-c3ccc(C4(C#N)CC4)nc3)n(C)c(=O)c2c1 [Example 331]	> 15000 nM

Same assay, conditions: cellular pAKT, 6 hours

Structure (SMILES)	IC50
Cc1cc([C@@H](C)Nc2ccccc2C(=O)O)c2cc(-c3cnc(CF)c(F)c3)n(C)c(=O)c2c1 [Example 289]	> 15000 nM
Cc1cc([C@@H](C)Nc2ccccc2C(=O)O)c2cc(C34CC(c5ccc(F)cc5)(C3)C4)n(C)c(=O)c2c1 [Example 321]	2000 to 15000 nM
C[C@@H](Nc1ccccc1C(=O)O)c1cc(F)cc2c(=O)n(C)c(-c3cnc(-c4ccc(F)cc4)nc3)cc12 [Example 324]	> 15000 nM
Cc1cc([C@@H](C)Nc2cccc(F)c2C(=O)O)c2cc(N3CCN(c4cncnc4C)CC3)n(C)c(=O)c2c1 [Example 325]	2000 to 15000 nM
Cc1cc([C@@H](C)Nc2ccc(Cl)c(F)c2C(=O)O)c2cc(N3CCN(CC(F)(F)F)CC3)n(C)c(=O)c2c1 [Example 327]	2000 to 15000 nM
